This note sets out measurements from patent publication US10428080B2, “TBK/IKK inhibitor compounds and uses thereof” (Merck Patent GmbH, priority 2015, dated 2019).

Where a name gives a salt, the structure may show the parent alone.

In one test the target is T1, TBK1 (Homo sapiens, UniProt Q9UHD2).
T1 sequence (Q9UHD2 1-729): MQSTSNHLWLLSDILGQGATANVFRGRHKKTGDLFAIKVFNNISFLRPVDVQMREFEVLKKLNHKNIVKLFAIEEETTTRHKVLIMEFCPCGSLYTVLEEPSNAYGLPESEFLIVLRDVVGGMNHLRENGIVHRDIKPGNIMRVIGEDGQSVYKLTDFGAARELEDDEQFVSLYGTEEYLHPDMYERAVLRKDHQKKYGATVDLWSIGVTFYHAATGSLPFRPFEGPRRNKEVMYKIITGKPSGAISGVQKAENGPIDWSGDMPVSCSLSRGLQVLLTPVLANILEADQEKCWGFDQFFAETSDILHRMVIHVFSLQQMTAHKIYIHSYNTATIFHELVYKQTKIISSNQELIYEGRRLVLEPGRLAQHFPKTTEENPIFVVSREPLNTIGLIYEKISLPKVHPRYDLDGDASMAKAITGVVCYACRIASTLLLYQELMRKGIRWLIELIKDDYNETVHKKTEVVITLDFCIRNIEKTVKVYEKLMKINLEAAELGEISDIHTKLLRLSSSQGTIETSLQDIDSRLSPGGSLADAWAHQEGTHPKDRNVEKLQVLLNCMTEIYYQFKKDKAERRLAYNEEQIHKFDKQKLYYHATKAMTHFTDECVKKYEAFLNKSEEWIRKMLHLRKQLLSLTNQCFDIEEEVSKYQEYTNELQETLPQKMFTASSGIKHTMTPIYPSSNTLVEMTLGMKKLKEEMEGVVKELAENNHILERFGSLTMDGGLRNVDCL
In words: TBK Biochemical Assay. The conditions noted are these: read-out: TBK1 IC50. The procedure, abridged:
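Caliper LabChip mobility-shift readout of substrate and product after 90 min of TBK1 reaction at 25° C and stop-buffer addition. Compounds tested in 1:4 serial dilution over 10 points from 30 uM final at 1% DMSO; staurosporine 10 uM final defines full inhibition.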

The target of the next test is T2, IKKε (Homo sapiens, UniProt Q14164).
T2 sequence (Q14164 1-716): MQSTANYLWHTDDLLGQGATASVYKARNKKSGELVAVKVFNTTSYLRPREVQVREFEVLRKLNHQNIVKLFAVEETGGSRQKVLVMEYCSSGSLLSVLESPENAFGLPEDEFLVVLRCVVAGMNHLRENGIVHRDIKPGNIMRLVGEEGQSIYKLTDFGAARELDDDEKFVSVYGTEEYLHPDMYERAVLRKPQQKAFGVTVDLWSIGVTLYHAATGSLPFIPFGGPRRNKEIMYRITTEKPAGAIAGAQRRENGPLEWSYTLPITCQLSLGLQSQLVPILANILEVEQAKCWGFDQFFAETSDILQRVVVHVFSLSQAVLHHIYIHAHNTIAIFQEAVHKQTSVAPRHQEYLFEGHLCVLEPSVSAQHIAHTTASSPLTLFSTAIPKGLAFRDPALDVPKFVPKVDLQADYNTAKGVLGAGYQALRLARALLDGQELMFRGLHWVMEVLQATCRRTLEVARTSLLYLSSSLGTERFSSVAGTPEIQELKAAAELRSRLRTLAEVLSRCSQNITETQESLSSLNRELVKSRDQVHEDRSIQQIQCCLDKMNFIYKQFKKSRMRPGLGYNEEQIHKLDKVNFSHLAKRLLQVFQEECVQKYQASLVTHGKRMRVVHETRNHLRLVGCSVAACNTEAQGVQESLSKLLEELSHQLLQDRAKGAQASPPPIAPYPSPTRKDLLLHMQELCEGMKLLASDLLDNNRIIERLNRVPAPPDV
As to the kind of experiment: IKKe Biochemical Assay. As to conditions: read-out: IKKε IC50. The procedure, abridged: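 Activity was measured as mobility-shift separation of phosphorylated from unphosphorylated substrate on a LabChip EZ Reader. Compound was titrated from 30 uM final in 10 points, 1:4 steps, with 1% DMSO, and enzyme plus substrate reacted 90 min at 25° C before stop buffer. Control wells held 10 uM staurosporine.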

Consider `CCc1cc(C(=O)N(C)C)ccc1-c1cc2nccc(-c3ccc(OC4CCOCC4)c(C#N)c3)c2o1` [Compound 263, 4-(7-(3-cyano-4-(tetrahydro-2H-pyran-4-yloxy)phenyl)furo[3,2-b]pyridin-2-yl)-3-ethyl-N,N-dimethylbenzamide], for which the concentration for half-maximal inhibition (IC50) on TBK1 and on IKKε was less than 0.1 µM in each case.
As for `CN(C)C(=O)c1ccc(-c2cc3nccc(-c4ccc(OC5CCOCC5)c(C#N)c4)c3o2)c(O)c1` [Compound 264, 4-(7-(3-cyano-4-(tetrahydro-2H-pyran-4-yloxy)phenyl)furo[3,2-b]pyridin-2-yl)-3-hydroxy-N,N-dimethylbenzamide], the IC50 at TBK1 and at IKKε was less than 0.1 µM in each case.
`COc1cc(C(=O)N(C)C)ccc1-c1cc2ncc(Cl)c(-c3ccc(OC4CCOCC4)c(C#N)c3)c2o1` [Compound 265, 4-(6-chloro-7-(3-cyano-4-(tetrahydro-2H-pyran-4-yloxy)phenyl)furo[3,2-b]pyridin-2-yl)-3-methoxy-N,N-dimethylbenzamide]: the half-maximal inhibitory concentration (IC50) at TBK1 and on IKKε was 0.1 to 1 µM in each case.
In the case of `COc1cc(C(=O)N(C)C)ccc1-c1cc2ncc(Cl)c(-c3ccc(NC4CCOCC4)c(C#N)c3)c2o1` [Compound 266, 4-(6-chloro-7-(3-cyano-4-(tetrahydro-2H-pyran-4-ylamino)phenyl)furo[3,2-b]pyridin-2-yl)-3-methoxy-N,N-dimethylbenzamide], the concentration for half-maximal inhibition (IC50) on TBK1 and at IKKε was 0.1 to 1 µM throughout.
With `CN(CCO)C(=O)c1ccc(-c2cc3ncc(Cl)c(-c4ccc(OC5CCOCC5)c(C#N)c4)c3o2)c(F)c1` [Compound 267, 4-(6-chloro-7-(3-cyano-4-(tetrahydro-2H-pyran-4-yloxy)phenyl)furo[3,2-b]pyridin-2-yl)-3-fluoro-N-(2-hydroxyethyl)-N-methylbenzamide], the results for the IC50 at TBK1 and at IKKε were 1 to 5 µM and more than 5 µM, respectively.
For `COc1cc(C(=O)N(C)CCO)ccc1-c1cc2ncc(C)c(-c3ccc(NC4CCOCC4)c(C#N)c3)c2o1` [Compound 268, 4-(7-(3-cyano-4-(tetrahydro-2H-pyran-4-ylamino)phenyl)-6-methylfuro[3,2-b]pyridin-2-yl)-N-(2-hydroxyethyl)-3-methoxy-N-methylbenzamide] the same measures were 0.1 to 1 µM and 0.1 to 1 µM.
On the same counts, the results for `COc1cc(C(=O)N(C)C)ccc1-c1cc2ncc(C)c(-c3ccc(OC4CCOCC4)c(C#N)c3)c2o1` [Compound 269, 4-(7-(3-cyano-4-(tetrahydro-2H-pyran-4-yloxy)phenyl)-6-methylfuro[3,2-b]pyridin-2-yl)-3-methoxy-N,N-dimethylbenzamide hydrochloride] are 0.1 to 1 µM and 0.1 to 1 µM.
`COc1cc(C(=O)N(C)C)cnc1-c1cc2nccc(-c3ccc(NC4CCOCC4)c(C#N)c3)c2o1` [Compound 270, 6-(7-(3-cyano-4-(tetrahydro-2H-pyran-4-ylamino)phenyl)furo[3,2-b]pyridin-2-yl)-5-methoxy-N,N-dimethylnicotinamide hydrochloride]: the half-inhibitory concentration (IC50) at TBK1 and on IKKε was less than 0.1 µM each time.
For `COc1nc(C(=O)N(C)C)ccc1-c1cc2nccc(-c3ccc(OC4CCOCC4)c(C#N)c3)c2o1` [Compound 271, 5-(7-(3-cyano-4-(tetrahydro-2H-pyran-4-yloxy)phenyl)furo[3,2-b]pyridin-2-yl)-6-methoxy-N,N-dimethylpicolinamide], the IC50 at TBK1 and at IKKε was less than 0.1 µM throughout.
Take `COc1cc(C(=O)N(C)C)cnc1-c1cc2nccc(-c3ccc(OC4CCOCC4)c(C#N)c3)c2o1` [Compound 274, 6-(7-(3-cyano-4-(tetrahydro-2H-pyran-4-yloxy)phenyl)furo[3,2-b]pyridin-2-yl)-5-methoxy-N,N-dimethylnicotinamide hydrochloride]: the IC50 on TBK1 and on IKKε was less than 0.1 µM each time.

By IC50 is commonly meant the concentration at which inhibition is half-maximal.
